Laboratory results: patent publication US11155844B2, “Process for the production of ortho-aminobenzoic acid and/or aniline from fermentable substrate using recombinant yeast” (Covestro Deutschland AG, priority 2015, dated 2021)
Converted amounts (≈) assume the structure as drawn.

Test: solubility of oAB in water depending on the pH
Format: physicochemical
Settings: plasma or biological fluid; pH between 3.0 and 4.0; fermentation broth; read-out: oAB remaining dissolved at the solubility minimum

Nc1ccccc1C(=O)O [oAB, 2-aminobenzoic acid]
solubility: ~5000 µg/mL (≈ 36.5 mM)
